Counter-ions that a name gives are not always drawn.
Biological target: human TDO2 (Homo sapiens (Human), UniProt P48775)
Assay: Cellular assay for TDO2 activity, A172 cells naturally expressing hTDO2
Assay type: cell-based
Details: human glioblastoma A172 cells, overnight incubation, kynurenine in supernatant
Protocol: A172 is a cell line derived from human brain glioblastoma cells.
To determine TDO, the cells were incubated overnight at 37° C. at 5% CO2 in IMDM (Invitrogen) supplemented with 2% FBS and 2% penicillin/streptomycin in the presence of the compounds of the present invention, at different concentrations.
The plates were then centrifuged 5 min at 1000 rpm, and 100 μL of the supernatant were collected in a conical plate, 30 uL of TCA 30% were added and a further centrifugated at 3000×g for 10 minutes. 100 μL of the supernatant were collected in a flat bottomed plate and 100 μL of 2% (w/v) 4-(dimethylamino)-benzaldehyde in acetic acid and incubated for 5 min at room temperature. Kynurenine concentrations were determined by measuring the absorbance at 480 nm. A standard curve was made with pure kynurenine. The TDO activity was measured as described above using ten serial concentrations of the compounds of the present invention. Data were fitted using the Prism™ software (GraphPad Software, Inc.) using standard software configurations.

Sequence of human TDO2 (P48775 whole entry): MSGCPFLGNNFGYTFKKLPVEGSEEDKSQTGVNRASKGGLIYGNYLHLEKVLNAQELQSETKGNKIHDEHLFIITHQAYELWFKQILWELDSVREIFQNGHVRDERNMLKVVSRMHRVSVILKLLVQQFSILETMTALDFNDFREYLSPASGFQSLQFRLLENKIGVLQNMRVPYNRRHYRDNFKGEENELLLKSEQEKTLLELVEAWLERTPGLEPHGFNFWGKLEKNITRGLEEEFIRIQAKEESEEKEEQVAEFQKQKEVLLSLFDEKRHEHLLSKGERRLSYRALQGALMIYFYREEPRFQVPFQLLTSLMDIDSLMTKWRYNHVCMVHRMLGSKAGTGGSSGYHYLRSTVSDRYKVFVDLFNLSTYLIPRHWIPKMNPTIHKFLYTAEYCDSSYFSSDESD

SMILES | IC50 [nM]
O=C1Cc2ncc(-c3c[nH]c4cc(F)ccc34)cc2N1 [Example 76, 6-(6-fluoro-1H-indol-3-yl)-1H-pyrrolo[3,2-b]pyridin-2(3H)-one] | 4100
CS(=O)(=O)NCCNS(=O)(=O)c1ccc(-c2c[nH]c3cc(F)ccc23)cn1 [Example 88, 5-(6-fluoro-1H-indol-3-yl)-N-(2-(methylsulfonamido)ethyl)pyridine-2-sulfonamide] | 350
O=C(Nc1ccc(-c2c[nH]c3cc(F)ccc23)cn1)[C@@H]1CCCN1 [Example 58, (S)—N-(5-(6-fluoro-1H-indol-3-yl)pyridin-2-yl)pyrrolidine-2-carboxamide] | 810
CNC(=O)Nc1ccc(-c2c[nH]c3cc(F)ccc23)cn1 [Example 66, 1-(5-(6-fluoro-1H-indol-3-yl)pyridin-2-yl)-3-methylurea] | 440
Fc1ccc2c(-c3ccc(NC4CCOCC4)nc3)c[nH]c2c1 [Example 100, 5-(6-fluoro-1H-indol-3-yl)-N-(tetrahydro-2H-pyran-4-yl)pyridin-2-amine] | 620
CCOC(=O)Cn1c(=O)[nH]c2cc(-c3c[nH]c4cc(F)ccc34)cnc21 [Example 86, ethyl 2-(6-(6-fluoro-1H-indol-3-yl)-2-oxo-1H-imidazo[4,5-b]pyridin-3(2H)-yl)acetate] | 610
CN(CCNS(C)(=O)=O)S(=O)(=O)c1ccc(-c2c[nH]c3cc(F)ccc23)cn1 [Example 91, 5-(6-fluoro-1H-indol-3-yl)-N-methyl-N-(2-(methylsulfonamido)ethyl)pyridine-2-sulfonamide] | 270
CS(=O)(=O)NC1CCN(c2ccc(-c3c[nH]c4cc(Cl)ccc34)cn2)CC1 [Example 72, N-(1-(5-(6-chloro-1H-indol-3-yl)pyridin-2-yl)piperidin-4-yl)methanesulfonamide] | 4700
N#Cc1ccc2[nH]cc(-c3ccc(S(=O)(=O)N4CCNCC4)nc3)c2c1 [Example 97, 3-(6-(piperazin-1-ylsulfonyl)pyridin-3-yl)-1H-indole-5-carbonitrile] | 2400
CS(=O)(=O)NC1CCN(c2ccc(-c3c[nH]c4ccc(Cl)cc34)cn2)CC1 [Example 77, N-(1-(5-(5-chloro-1H-indol-3-yl)pyridin-2-yl)piperidin-4-yl)methanesulfonamide] | 2800
CN(C)C(=O)Nc1ccc(-c2c[nH]c3cc(F)ccc23)cn1 [Example 65, 3-(5-(6-fluoro-1H-indol-3-yl)pyridin-2-yl)-1,1-dimethylurea] | 820
CS(=O)(=O)NCCC(=O)Nc1ccc(-c2c[nH]c3cc(F)ccc23)cn1 [Example 64, N-(5-(6-fluoro-1H-indol-3-yl)pyridin-2-yl)-3-(methylsulfonamido)propanamide] | 870
NC(=O)CCNS(=O)(=O)c1ccc(-c2c[nH]c3cc(F)ccc23)cn1 [Example 99, 3-(5-(6-fluoro-1H-indol-3-yl)pyridine-2-sulfonamido)propanamide] | 370
Nc1nc2ccc(-c3ccc(-c4c[nH]c5cc(F)ccc45)cn3)cc2[nH]1 [Example 67, 6-(5-(6-fluoro-1H-indol-3-yl)pyridin-2-yl)-1H-benzo[d]imidazol-2-amine] | 460
CS(=O)(=O)NC1CCN(c2ccc(-c3c[nH]c4ccccc34)cn2)CC1 [Example 79, N-(1-(5-(1H-indol-3-yl)pyridin-2-yl)piperidin-4-yl)methanesulfonamide] | 1200
O=C(O)Cn1c(=O)[nH]c2cc(-c3c[nH]c4cc(F)ccc34)cnc21 [Example 85, 2-(6-(6-fluoro-1H-indol-3-yl)-2-oxo-1H-imidazo[4,5-b]pyridin-3(2H)-yl)acetic acid] | 2300
Cc1nc2ncc(-c3c[nH]c4cc(F)ccc34)cc2o1 [Example 74, 6-(6-fluoro-1H-indol-3-yl)-2-methyloxazolo[4,5-b]pyridine] | 400
O=S(=O)(c1ccc(-c2c[nH]c3ccccc23)cn1)N1CCNCC1 [Example 93, 3-(6-(piperazin-1-ylsulfonyl)pyridin-3-yl)-1H-indole] | 200
O=S(=O)(CCO)NC1CCN(c2ccc(-c3c[nH]c4cc(F)ccc34)cn2)CC1 [Example 62, N-(1-(5-(6-fluoro-1H-indol-3-yl)pyridin-2-yl)piperidin-4-yl)-2-hydroxyethanesulfonamide] | 1300
NS(=O)(=O)c1ccc(-c2c[nH]c3cc(F)ccc23)cn1 [Example 80, 5-(6-fluoro-1H-indol-3-yl)pyridine-2-sulfonamide hydrochloride] | 310
O=S(=O)(CCN1CCOCC1)NC1CCN(c2ccc(-c3c[nH]c4cc(F)ccc34)cn2)CC1 [Example 59, N-(1-(5-(6-fluoro-1H-indol-3-yl)pyridin-2-yl)piperidin-4-yl)-2-morpholinoethanesulfonamide] | 1400
CC(C)[C@H](N)C(=O)Nc1ccc(-c2c[nH]c3cc(F)ccc23)cn1 [Example 38, (S)-2-amino-N-(5-(6-fluoro-1H-indol-3-yl)pyridin-2-yl)-3-methylbutanamide] | 740

SMILES | IC50 [nM]
N[C@@H](Cc1ccccc1)C(=O)Nc1ccc(-c2c[nH]c3cc(F)ccc23)cn1 [Example 36, (S)-2-amino-N-(5-(6-fluoro-1H-indol-3-yl)pyridin-2-yl)-3-phenylpropanamide] | 1100
COCCS(=O)(=O)NC1CCN(c2ccc(-c3c[nH]c4cc(F)ccc34)cn2)CC1 [Example 57, N-(1-(5-(6-fluoro-1H-indol-3-yl)pyridin-2-yl)piperidin-4-yl)-2-methoxyethanesulfonamide] | 1400
CN(CCNS(=O)(=O)c1ccc(-c2c[nH]c3cc(F)ccc23)cn1)S(C)(=O)=O [Example 89, 5-(6-fluoro-1H-indol-3-yl)-N-(2-(N-methylmethylsulfonamido)ethyl)pyridine-2-sulfonamide] | 350
O=S(=O)(c1ccc(-c2c[nH]c3cc(F)c(F)cc23)cn1)N1CCNCC1 [Example 94, 5,6-difluoro-3-(6-(piperazin-1-ylsulfonyl)pyridin-3-yl)-1H-indole] | 240
CC(=O)NCCNS(=O)(=O)c1ccc(-c2c[nH]c3cc(F)ccc23)cn1 [Example 92, N-(2-(5-(6-fluoro-1H-indol-3-yl)pyridine-2-sulfonamido)ethyl)acetamide] | 330
O=S(=O)(c1ccc(-c2c[nH]c3ccc(F)cc23)cn1)N1CCNCC1 [Example 95, 5-fluoro-3-(6-(piperazin-1-ylsulfonyl)pyridin-3-yl)-1H-indole] | 370
CC(=O)N1CCC(C(=O)Nc2ccc(-c3c[nH]c4cc(F)ccc34)cn2)CC1 [Example 42, 1-acetyl-N-(5-(6-fluoro-1H-indol-3-yl)pyridin-2-yl)piperidine-4-carboxamide] | 520
O=S(=O)(c1ccc(-c2c[nH]c3cc(F)ccc23)cn1)N1CCNCC1 [Example 87, 6-fluoro-3-(6-(piperazin-1-ylsulfonyl)pyridin-3-yl)-1H-indole] | 230
CN(CCC(N)=O)S(=O)(=O)c1ccc(-c2c[nH]c3cc(F)ccc23)cn1 [Example 101, 3-(5-(6-fluoro-1H-indol-3-yl)-N-methylpyridine-2-sulfonamido)propanamide] | 360
Cc1nc2cc(-c3c[nH]c4cc(F)ccc34)cnc2o1 [Example 75, 6-(6-fluoro-1H-indol-3-yl)-2-methyloxazolo[5,4-b]pyridine] | 500
O=C1COCCN1c1ccc(-c2c[nH]c3cc(F)ccc23)cn1 [Example 82, 4-(5-(6-fluoro-1H-indol-3-yl)pyridin-2-yl)morpholin-3-one] | 590
CS(=O)(=O)NCCCC(=O)Nc1ccc(-c2c[nH]c3cc(F)ccc23)cn1 [Example 70, N-(5-(6-fluoro-1H-indol-3-yl)pyridin-2-yl)-4-(methylsulfonamido)butanamide] | 720
Cc1ccc2c(-c3ccc(S(=O)(=O)N4CCNCC4)nc3)c[nH]c2c1 [Example 98, 6-methyl-3-(6-(piperazin-1-ylsulfonyl)pyridin-3-yl)-1H-indole] | 1400
O=c1[nH]c2cc(-c3c[nH]c4cc(F)ccc34)cnc2[nH]1 [Example 73, 6-(6-fluoro-1H-indol-3-yl)-1H-imidazo[4,5-b]pyridin-2(3H)-one] | 600
Cc1ccc2[nH]cc(-c3ccc(S(=O)(=O)N4CCNCC4)nc3)c2c1 [Example 96, 5-methyl-3-(6-(piperazin-1-ylsulfonyl)pyridin-3-yl)-1H-indole] | 530
O=c1[nH]c2ncc(-c3c[nH]c4cc(F)ccc34)cc2o1 [Example 71, 6-(6-fluoro-1H-indol-3-yl)oxazolo[4,5-b]pyridin-2(3H)-one] | 1400
CS(=O)(=O)NC1CCN(c2ccc(-c3c[nH]c4ccc(F)cc34)cn2)CC1 [Example 81, N-(1-(5-(5-fluoro-1H-indol-3-yl)pyridin-2-yl)piperidin-4-yl)methanesulfonamide] | 2000
O=C1CNCCN1c1ccc(-c2c[nH]c3cc(F)ccc23)cn1 [Example 83, 1-(5-(6-fluoro-1H-indol-3-yl)pyridin-2-yl)piperazin-2-one] | 1500
CS(=O)(=O)N1CCN(S(=O)(=O)c2ccc(-c3c[nH]c4cc(F)ccc34)cn2)CC1 [Example 90, 6-fluoro-3-(6-((4-(methylsulfonyl)piperazin-1-yl)sulfonyl)pyridin-3-yl)-1H-indole] | 1400
NC(=O)Nc1ccc(-c2c[nH]c3cc(F)ccc23)cn1 [Example 63, 1-(5-(6-fluoro-1H-indol-3-yl)pyridin-2-yl)urea] | 360
CS(=O)(=O)Nc1ccc(-c2c[nH]c3cc(F)ccc23)cn1 [Example 60, N-(5-(6-fluoro-1H-indol-3-yl)pyridin-2-yl)methanesulfonamide] | 700

From patent publication US9758505B2, “3-(indol-3-yl)-pyridine derivatives, pharmaceutical compositions and methods for use” (ITEOS THERAPEUTICS, priority 2014, dated 2017)
